Results reported in PMC11156899, “High-throughput screening unveils nitazoxanide as a potent PRRSV inhibitor by targeting NMRAL1” (Nature Communications, 2024).

How the values were obtained:
PRRSV GSWW-15 = experiment: EC50 against GSWW-15 strain on PAM cells; format: cell-based; details: Porcine reproductive and respiratory syndrome virus
Excerpt: (§1) Supplementary Fig. 3: Cytotoxicity and Antiviral Efficacy of NTZ.
(§2) PRRSV capsid protein positive
(§3) (primary antibody SR30, green) and nuclei (DAPI, blue).

in vitro = details: pig
Description: (§4) A concentration-gradient screening strategy was employed for 141 compounds using indirect immunofluorescence assay (IFA). […] Data are mean ± SEM.
(§5) Cells were seeded in 96-well plates and grown in DMEM supplemented with 10% FBS. Upon reaching confluence, compounds were diluted to varying concentrations in 2% FBS-containing medium. Control wells contained DMEM with 0.5% DMSO. Treated cells were incubated at 37 °C in a 5% CO2 humidified environment for 48 or 72 h, followed by cytotoxicity assessment as outlined in our previous work[21]. […]

[1] = system: Porcine alveolar macrophages (PAM); experiment: in vitro
Description: as §4, §5

[2] = system: PRRSV (VR-2332, GSWW-15, GSWW-18); experiment: Viral titers of VR-2332, GSWW-15 and GSWW-18 in Marc-145 cells; format: cell-based, Porcine Reproductive and Respiratory Syndrome Virus; details: all three strains
Description: Viral solutions were serially diluted by a factor of 10. Samples containing varying concentrations of virus (100 μL each) were combined with DMEM containing 2% FBS (100 μL) and added to wells; control wells were virus-free. […] Relative quantification qRT-PCR was used to assess PRRSV gene expression, normalized using the 2^−ΔΔCt method in Design & Analysis Software (v2.6.0). Absolute quantification qRT-PCR was used for viral copy number detection, with RNA concentration normalization prior to analysis, as described in our previous publication. Primers used included: PRRSV 5′-[…]′ and 5′-[…]-3′; Marc-145-GAPDH 5′-[…]-3′ and 5′-[…]-3′; PAM-GAPDH 5′-[…]-3′ and 5′-[…]-3′; IFNβ 5′-[…]-3′ and 5′-[…]-3′; Human-GAPDH 5′-[…]-3′ and 5′-[…]-3′.
as §1, §2, §3

Nsp1α = experiment: Differential scanning fluorimetry, purified Nsp1α; format: binding, PRRSV GSWW-18 strain; details: DSF
Description: For DSF, 20 μM purified NSP1α and NSP12 protein from the GSWW-18 strain, as well as NMRAL1 protein (Accession: A0A0D9R9W0) was thoroughly mixed with 20 μM SYPRO Orange (S6650, Thermo) in a buffer containing 10 mM HEPES and 200 mM NaCl at pH 7.20. An equal volume of 100 μM NTZ, dissolved in the same buffer, was added and the mixture was filtered through a 0.22 μm filter. For controls, an equivalent volume of DMSO was used. […] DSF experiments were monitored using the QuantStudio™ 5 Real-Time PCR System (Thermo). Data were analyzed using DSFworld[42].
Supplementary Fig. 10: The Affinity of Nsp1α and Nsp12 with TIZ is Lower Than That of NMRAL1.
(a) The KD value of NMRAL1 obtained through the Affinity fit model.
(b) The KD value of Nsp1α determined using the Kinetics fit model.
(c) The KD value of Nsp1α obtained through the Affinity fit model.

PRRSV VR-2332 = experiment: Time-of-addition and lifecycle-stage experiments in Marc-145 cells; format: cell-based, Porcine Reproductive and Respiratory Syndrome Virus
Excerpt: The pronounced antiviral phenotype led us to explore the mechanism behind NTZ’s inhibition of PRRSV proliferation. We adopted a classic approach of administering the drug at various time points to study NTZ’s effect on the PRRSV lifecycle (Supplementary Fig. 9a). […] Identifying the target protein of NTZ became imperative. Using the isothermal shift assay (iTSA), we discovered 26 potential NTZ targets (Fig. 5a). Further, Cellular Thermal Shift Assay-Western Blot (CETSA-WB) temperature range (TR) experiment indicated Glycine amidinotransferase mitochondrial (GATM), NMRAL1, and PRRSV proteins NSP1α and NSP12 as potential NTZ targets (Fig. 5b, c). The compound concentration range (CCR) experiment also supported these four proteins as potential NTZ targets (Fig. 5d).
Supplementary Fig. 9: NTZ Inhibition of PRRSV Replication Stages.
(a) Schematic of the classic experimental approach of adding the drug at different time points. […]
(c) Viral inactivation (dark purple): PRRSV was pre-incubated with the compound for 1 hour in the incubator before transferring to monolayer Marc-145 cells, followed by medium change after 2 hours. […] All samples were collected and analyzed at 48 […]
hours. […] NS indicates P > 0.0332, calculated via two-way ANOVA with Dunnett’s multiple-comparison test (b and c); P-values < 0.0332 were considered significant.

CC(=O)Oc1ccccc1C(=O)Nc1ncc([N+](=O)[O-])s1 [Nitazoxanide]
EC50 (PRRSV GSWW-15): ~1170 nM
CC50 at 48 h (in vitro): ~44 µM
cytotoxicity (in words) [1]: low cytotoxicity
relation of concentration to viral titers [2]: negative correlation
decrease in the Tm value (Nsp1α): 3.75 °C
PRRSV proliferation, late addition (PRRSV VR-2332; added 16 h post viral inoculation): significantly inhibited PRRSV proliferation
stage of PRRSV lifecycle affected (PRRSV VR-2332; adsorption, entry, replication, release): primarily affects PRRSV replication
